Reference: patent EP3696177A1, “HETEROCYCLIC COMPOUNDS FOR THE CONTROL OF INVERTEBRATE PESTS” (BASF SE, priority 2019, dated 2020)

What was measured:
Format in all cases: in vivo
Aedes aegypti = assay: whole plant or invertebrate; details: 48 h, A. aegypti larvae, incubated 2 days, read-out: mortality in comparison with untreated controls (larval mortality)
Procedure: For evaluating control of yellow fever mosquito (Aedes aegypti) the test unit consisted of 96-well-microtiter plates containing 200µl of tap water per well and 5-15 freshly hatched A. aegypti larvae.
The active compounds were formulated using a solution containing 75% (v/v) water and 25% (v/v) DMSO. Different concentrations of formulated compounds or mixtures were sprayed onto the insect diet at 2.5µl, using a custom built micro atomizer, at two replications.
After application, microtiter plates were incubated at 28 + 1°C, 80 + 5 % RH for 2 days. Larval mortality was then visually assessed.

dichromothrips corbetti = assay: Orchid thrips floral-immersion test; details: 72 h, read-out: mortality in comparison with untreated controls
Procedure: Dichromothrips corbetti adults used for bioassay are obtained from a colony maintained continu-ously under laboratory conditions. For testing purposes, the test compound is diluted in a 1:1 mix-ture of acetone:water (vol:vol), plus Kinetic at a rate of 0.01% v/v.
Thrips potency of each compound is evaluated by using a floral-immersion technique. Each orchid petal is dipped into treatment solution and allowed to dry in Petri dishes. Treated petals are placed into individual re-sealable plastic along with about 20 adult thrips. All test arenas are held under dark condition and a temperature of about 28°C for duration of the assay. The percent mor-tality is recorded 72 hours after treatment.

Anthonomus grandis = assay: Boll weevil (Anthonomus grandis) insect diet microtiter plate test; details: 120 h, read-out: mortality in comparison with untreated controls (egg and larval mortality)
Procedure: For evaluating control of boll weevil (Anthonomus grandis) the test unit consisted of 96-well-microtiter plates containing an insect diet and 5-10 A. grandis eggs.
The compounds were formulated using a solution containing 75% v/v water and 25% v/v DMSO. Different concentrations of formulated compounds were sprayed onto the insect diet at 5 µl, using a custom built micro atomizer, at two replications.
After application, microtiter plates were incubated at about 25 + 1°C and about 75 + 5 % relative humidity for 5 days. Egg and larval mortality was then visually assessed.

Caenorhabditis elegans = Caenorhabditis elegans liquid diet microtiter plate test; details: 96 h, read-out: mortality in comparison with untreated controls (nematode motility (mortality))
Procedure: For evaluating control of Caenorhabditis elegans through contact or systemic means the test unit consisted of 96-well-microtiter plates containing a liquid diet.
The compounds or mixtures were formulated using a solution containing 75% water and 25% DMSO. Different concentrations of formulated compounds were sprayed into the microtiter plate wells at 5µl per well, using a custom built micro atomizer, at two replications. Mixed instar 60-100 C. elegans were transferred into the micro-titer plate wells. After application, the nematodes were incubated at 18 + 1°C, 70 + 5 % RH for 4 days. Nematode motility (mortality) was then visually assessed.

Heliothis virescens = assay: Tobacco budworm (Heliothis virescens) insect diet microtiter plate test; details: 120 h, read-out: mortality in comparison with untreated controls (egg and larval mortality)
Procedure: For evaluating control of tobacco budworm (Heliothis virescens) the test unit consisted of 96-well-microtiter plates containing an insect diet and 15-25 H. virescens eggs.
The compounds were formulated using a solution containing 75% v/v water and 25% v/v DMSO. Different concentrations of formulated compounds were sprayed onto the insect diet at 10 µl, us-ing a custom built micro atomizer, at two replications.
After application, microtiter plates were incubated at about 28 + 1°C and about 80 + 5 % relative humidity for 5 days. Egg and larval mortality was then visually assessed.

Megoura viciae = assay: Vetch aphid (Megoura viciae) broad bean leaf disk test; details: foliar, 120 h, read-out: mortality in comparison with untreated controls
Procedure: For evaluating control of vetch aphid (Megoura viciae) through contact or systemic means the test unit consisted of 24-well-microtiter plates containing broad bean leaf disks.
The compounds were formulated using a solution containing 75% v/v water and 25% v/v DMSO. Different concentrations of formulated compounds were sprayed onto the leaf disks at 2.5 µl, us-ing a custom built micro atomizer, at two replications.
After application, the leaf disks were air-dried and 5 - 8 adult aphids placed on the leaf disks in-side the microtiter plate wells. The aphids were then allowed to suck on the treated leaf disks and incubated at about 23 + 1°C and about 50 + 5 % relative humidity for 5 days. Aphid mortality and fecundity was then visually assessed.

Myzus persicae = assay: Green peach aphid (Myzus persicae) artificial diet/membrane systemic test; details: 72 h, read-out: mortality in comparison with untreated controls
From the text: For evaluating control of green peach aphid (Myzus persicae) through systemic means the test unit consisted of 96-well-microtiter plates containing liquid artificial diet under an artificial membrane.
The compounds were formulated using a solution containing 75% v/v water and 25% v/v DMSO. Different concentrations of formulated compounds were pipetted into the aphid diet, using a cus-tom built pipetter, at two replications.
After application, 5 - 8 adult aphids were placed on the artificial membrane inside the microtiter plate wells. The aphids were then allowed to suck on the treated aphid diet and incubated at about 23 + 1°C and about 50 + 5 % relative humidity for 3 days. Aphid mortality and fecundity was then visually assessed.

Nephotettix virescens = assay: Rice green leafhopper (Nephotettix virescens) spray test on rice seedlings; details: adults, after 72 hours, read-out: mortality in comparison with untreated controls
Procedure: Four to five-week old rice seedlings with cut upper leaf portion are cleaned and washed 24 hours before spraying. The active compounds are formulated in 1:1 acetone:water (vol:vol), and 0.01% vol/vol surfactant (Kinetic) is added. Potted rice seedlings are sprayed with 5-6 ml test solution, air dried, covered with Mylar cages and inoculated with 10 adults. Treated rice plants are kept at about 28-29°C and relative humidity of about 50-60%. Percent mortality is recorded after 72 hours.

Plutella xylostella = assay: Diamond back moth (Plutella xylostella) cabbage leaf disc dip test; details: foliar, 72 h, read-out: mortality in comparison with untreated controls
Procedure: The active compound is dissolved at the desired concentration in a mixture of 1:1 (vol:vol) distilled water: acetone. Surfactant (Kinetic) is added at a rate of 0.01% (vol/vol). The test solution is pre-pared at the day of use.
Cabbage leaf discs (60mm in diameter) are dipped in test solution and air-dried. Treated leaves are placed in petri dishes lined with moistened filter paper and inoculated with ten 3rd instar larvae. Mortality is recorded 72 hours after treatment. Feeding damage is also recorded using a scale of 0-100%.

Tetranychus kanzawai = assay: Red spider mite (Tetranychus kanzawai) spray test on cowpea beans; details: topical, 72 h, read-out: mortality in comparison with untreated controls
Procedure: The active compound is dissolved at the desired concentration in a mixture of 1:1 (vol:vol) distilled water: acetone. Add surfactant (Kinetic) is added at a rate of 0.01% (vol/vol). The test solution is prepared at the day of use.
Potted cowpea beans of 4-5 days of age are cleaned with tap water and sprayed with 1-2 ml of the test solution using air driven DeVilbiss® hand atomizer at 20- 30 psi (≈ 1,38 to 2,07 bar). The treated plants are allowed to air dry and afterwards inoculated with 30 or more mites by clipping a cassava leaf section from rearing population. Treated plants are placed inside a holding room at about 25-26°C and about 65-70% relative humidity. Estimate percent mortality is assessed 72 hours after treatment.

O=C(NCC1OCN(CC2CC2)C1=O)c1ccc(C2=NOC(c3cc(Cl)c(F)c(Cl)c3)(C(F)(F)F)C2)c2c1CCC2 (centres unmarked) [Compound I-3-2]
> 75%: mortality at 2500 ppm (Aedes aegypti) | mortality at 300 ppm (dichromothrips corbetti) | mortality at 2500 ppm (Anthonomus grandis) | mortality at 2500 ppm (Caenorhabditis elegans) | mortality at 2500 ppm (Heliothis virescens) | mortality at 2500 ppm (Megoura viciae) | mortality at 2500 ppm (Myzus persicae) | mortality at 300 ppm (Nephotettix virescens) | mortality at 300 ppm (Plutella xylostella) | mortality at 300 ppm (Tetranychus kanzawai)

O=C(NCC1OCN(CC2CC2)C1=O)c1ccc(C2=NOC(c3cc(Cl)cc(C(F)(F)F)c3)(C(F)(F)F)C2)c2c1CCC2 (centres unmarked) [Compound I-3-4]
> 75%: mortality at 2500 ppm (Aedes aegypti) | mortality at 300 ppm (dichromothrips corbetti) | mortality at 2500 ppm (Anthonomus grandis) | mortality at 2500 ppm (Heliothis virescens) | mortality at 2500 ppm (Megoura viciae) | mortality at 2500 ppm (Myzus persicae) | mortality at 300 ppm (Plutella xylostella)

O=C(NCC1OCN(CC2CC2)C1=O)c1ccc(C2=NOC(c3cc(Cl)c(F)c(Cl)c3)(C(F)(F)F)C2)cc1Cl (centres unmarked) [Compound I-3-6]
> 75%: mortality at 2500 ppm (Aedes aegypti) | mortality at 300 ppm (dichromothrips corbetti) | mortality at 2500 ppm (Anthonomus grandis) | mortality at 2500 ppm (Heliothis virescens) | mortality at 2500 ppm (Megoura viciae) | mortality at 2500 ppm (Myzus persicae) | mortality at 300 ppm (Plutella xylostella)

CCN1COC(CNC(=O)c2ccc(C3=NOC(c4cc(Cl)cc(Cl)c4)(C(F)(F)F)C3)cc2Cl)C1=O (centres unmarked) [Compound I-3-8]
> 75%: mortality at 2500 ppm (Aedes aegypti) | mortality at 300 ppm (dichromothrips corbetti) | mortality at 2500 ppm (Anthonomus grandis) | mortality at 2500 ppm (Caenorhabditis elegans) | mortality at 2500 ppm (Heliothis virescens) | mortality at 2500 ppm (Megoura viciae) | mortality at 2500 ppm (Myzus persicae) | mortality at 300 ppm (Plutella xylostella)

O=C(NCC1OCN(CC(F)(F)F)C1=O)c1ccc(C2=NOC(c3cc(Cl)cc(Cl)c3)(C(F)(F)F)C2)cc1Cl (centres unmarked) [Compound I-3-9]
> 75%: mortality at 2500 ppm (Aedes aegypti) | mortality at 300 ppm (dichromothrips corbetti) | mortality at 2500 ppm (Anthonomus grandis) | mortality at 2500 ppm (Caenorhabditis elegans) | mortality at 2500 ppm (Heliothis virescens) | mortality at 2500 ppm (Megoura viciae) | mortality at 2500 ppm (Myzus persicae) | mortality at 300 ppm (Plutella xylostella)

O=C(NCC1OCN(CC2CC2)C1=O)c1ccc(C2=NOC(c3cc(Cl)cc(Cl)c3)(C(F)(F)F)C2)cc1Cl (centres unmarked) [Compound I-3-10]
> 75%: mortality at 2500 ppm (Aedes aegypti) | mortality at 300 ppm (dichromothrips corbetti) | mortality at 2500 ppm (Anthonomus grandis) | mortality at 2500 ppm (Caenorhabditis elegans) | mortality at 2500 ppm (Heliothis virescens) | mortality at 2500 ppm (Myzus persicae) | mortality at 300 ppm (Plutella xylostella)

Cc1cc(C2=NOC(c3cc(Cl)cc(Cl)c3)(C(F)(F)F)C2)ccc1C(=O)NCC1OCN(CC(F)(F)F)C1=O (centres unmarked) [Compound I-3-13]
> 75%: mortality at 2500 ppm (Aedes aegypti) | mortality at 300 ppm (dichromothrips corbetti) | mortality at 2500 ppm (Anthonomus grandis) | mortality at 2500 ppm (Caenorhabditis elegans) | mortality at 2500 ppm (Heliothis virescens) | mortality at 2500 ppm (Megoura viciae) | mortality at 2500 ppm (Myzus persicae) | mortality at 300 ppm (Plutella xylostella) | mortality at 300 ppm (Tetranychus kanzawai)

Cc1cc(C2=NOC(c3cc(Cl)cc(Cl)c3)(C(F)(F)F)C2)ccc1C(=O)NCC1OCN(CC2CC2)C1=O (centres unmarked) [Compound I-3-14]
> 75%: mortality at 2500 ppm (Aedes aegypti) | mortality at 300 ppm (dichromothrips corbetti) | mortality at 2500 ppm (Anthonomus grandis) | mortality at 2500 ppm (Caenorhabditis elegans) | mortality at 2500 ppm (Heliothis virescens) | mortality at 2500 ppm (Megoura viciae) | mortality at 2500 ppm (Myzus persicae) | mortality at 300 ppm (Plutella xylostella) | mortality at 300 ppm (Tetranychus kanzawai)

CN1C(=O)OC(CNC(=O)c2ccc(C3=NOC(c4cc(Cl)cc(Cl)c4)(C(F)(F)F)C3)cc2Cl)C1=O (centres unmarked) [Compound I-4-1, 2-chloro-4-[5-(3,5-dichlorophenyl)-5-(trifluoromethyl)-4H-isoxazol-3-yl]-N-[(3-methyl-2,4-dioxo-oxazolidin-5-yl)methyl]benzamide]
> 75%: mortality at 300 ppm (dichromothrips corbetti) | mortality at 2500 ppm (Anthonomus grandis) | mortality at 2500 ppm (Caenorhabditis elegans) | mortality at 2500 ppm (Heliothis virescens) | mortality at 2500 ppm (Megoura viciae) | mortality at 2500 ppm (Myzus persicae) | mortality at 300 ppm (Plutella xylostella)

O=C(NCC1OC(=O)N(CC(F)(F)F)C1=O)c1ccc(C2=NOC(c3cc(Cl)cc(Cl)c3)(C(F)(F)F)C2)cc1Cl (centres unmarked) [Compound I-4-2]
> 75%: mortality at 2500 ppm (Aedes aegypti) | mortality at 300 ppm (dichromothrips corbetti) | mortality at 2500 ppm (Anthonomus grandis) | mortality at 2500 ppm (Caenorhabditis elegans) | mortality at 2500 ppm (Heliothis virescens) | mortality at 2500 ppm (Megoura viciae) | mortality at 2500 ppm (Myzus persicae) | mortality at 300 ppm (Plutella xylostella)

O=C(NCC1OC(=O)N(CC2CC2)C1=O)c1ccc(C2=NOC(c3cc(Cl)cc(Cl)c3)(C(F)(F)F)C2)cc1Cl (centres unmarked) [Compound I-4-3]
> 75%: mortality at 2500 ppm (Aedes aegypti) | mortality at 300 ppm (dichromothrips corbetti) | mortality at 2500 ppm (Anthonomus grandis) | mortality at 2500 ppm (Caenorhabditis elegans) | mortality at 2500 ppm (Heliothis virescens) | mortality at 2500 ppm (Megoura viciae) | mortality at 2500 ppm (Myzus persicae) | mortality at 300 ppm (Plutella xylostella)

Cc1cc(C2=NOC(c3cc(Cl)cc(Cl)c3)(C(F)(F)F)C2)ccc1C(=O)NCC1OC(=O)N(C)C1=O (centres unmarked) [Compound I-4-4]
> 75%: mortality at 2500 ppm (Aedes aegypti) | mortality at 300 ppm (dichromothrips corbetti) | mortality at 2500 ppm (Anthonomus grandis) | mortality at 2500 ppm (Caenorhabditis elegans) | mortality at 2500 ppm (Heliothis virescens) | mortality at 2500 ppm (Megoura viciae) | mortality at 2500 ppm (Myzus persicae) | mortality at 300 ppm (Plutella xylostella) | mortality at 300 ppm (Tetranychus kanzawai)

Cc1cc(C2=NOC(c3cc(Cl)cc(Cl)c3)(C(F)(F)F)C2)ccc1C(=O)NCC1OC(=O)N(CC(F)(F)F)C1=O (centres unmarked) [Compound I-4-5]
> 75%: mortality at 2500 ppm (Aedes aegypti) | mortality at 300 ppm (dichromothrips corbetti) | mortality at 2500 ppm (Anthonomus grandis) | mortality at 2500 ppm (Caenorhabditis elegans) | mortality at 2500 ppm (Heliothis virescens) | mortality at 2500 ppm (Megoura viciae) | mortality at 2500 ppm (Myzus persicae) | mortality at 300 ppm (Plutella xylostella)

Cc1cc(C2=NOC(c3cc(Cl)cc(Cl)c3)(C(F)(F)F)C2)ccc1C(=O)NCC1OC(=O)N(CC2CC2)C1=O (centres unmarked) [Compound I-4-6]
> 75%: mortality at 2500 ppm (Aedes aegypti) | mortality at 300 ppm (dichromothrips corbetti) | mortality at 2500 ppm (Anthonomus grandis) | mortality at 2500 ppm (Caenorhabditis elegans) | mortality at 2500 ppm (Heliothis virescens) | mortality at 2500 ppm (Megoura viciae) | mortality at 2500 ppm (Myzus persicae) | mortality at 300 ppm (Plutella xylostella)
